# Results reported in patent US11780826B2 (Amgen Inc., priority 2017, dated 2023).
# Test system: Bovine cardiac myofibrils
# Assay: In vitro model of dose-dependent myofibril ATPase modulation (AC1.4, pyruvate kinase/lactate dehydrogenase-coupled ATPase assay at pCa25)
# Assay type: biochemical
# Conditions: concentration at which ATPase activity was 1.4-fold higher than the bottom of the dose curve, mean of a minimum of two independent tests
# Method in brief: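 Coupled-enzyme ATPase on bovine heart myofibrils, 1 mM ATP, EGTA/CaCl2 buffered; 340 nm readout.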
row,Structure (SMILES),AC1.4
1,"O=C(NCc1ccc(C(F)(F)F)cc1F)[C@H]1CCCN1C(=O)[C@H]1CCCN(S(=O)(=O)N2CC(O)(C(F)F)C2)C1 [Example 296, 1-(((3S)-1-((3-(difluoromethyl)-3-hydroxy-1-azetidinyl)sulfonyl)-3-piperidinyl)carbonyl)-N-(2-fluoro-4-(trifluoromethyl)benzyl)-D-prolinamide]",0.7679 µM
2,"N#CC1CN(S(=O)(=O)N2CCC[C@H](C(=O)N3CCC[C@@H]3C(=O)NCc3ccc(F)c(C(F)(F)F)c3)C2)C1 [Example 297, 1-(((3S)-1-((3-cyano-1-azetidinyl)sulfonyl)-3-piperidinyl)carbonyl)-N-(4-fluoro-3-(trifluoromethyl)benzyl)-D-prolinamide]",0.7685 µM
3,"CC(NC(=O)[C@@H](C)N(C)C(=O)c1cccc(S(=O)(=O)N2CC(C#N)C2)c1)c1ccc(Cl)cc1 (stereo partly drawn) [Example 298, N-((2R)-1-((1-(4-chlorophenyl)ethyl)amino)-1-oxopropan-2-yl)-3-((3-cyanoazetidin-1-yl)sulfonyl)-N-methylbenzamide]",0.7905 µM
4,"C[C@H](C(=O)N[C@H](C)c1ccc(C(F)(F)F)cc1F)N(C)C(=O)[C@@H]1CN(S(=O)(=O)N2CC(C#N)C2)CCO1 [Example 299, (2S)-4-((3-cyano-1-azetidinyl)sulfonyl)-N-((2R)-1-(((1R)-1-(2-fluoro-4-(trifluoromethyl)phenyl)ethyl)amino)-1-oxo-2-propanyl)-N-methyl-2-morpholinecarboxamide]",0.7923 µM
5,"CS(=O)(=O)c1cccc(C(=O)N2CCCC[C@@H]2C(=O)N[C@@H](c2ccc(C(F)(F)F)c(F)c2)C2CC2)c1 [Example 300, (2R)-N-((R)-cyclopropyl(3-fluoro-4-(trifluoromethyl)phenyl)methyl)-1-(3-(methylsulfonyl)benzoyl)-2-piperidinecarboxamide]",0.7928 µM
6,"O=C(NCc1ccc(C(F)(F)F)cc1)[C@H]1CCCN1C(=O)[C@H]1CCCN(S(=O)(=O)N2CCC2c2ccccc2F)C1 (stereo partly drawn) [Example 302, (2R)-1-((3S)-1-((2-(2-fluorophenyl)azetidin-1-yl)sulfonyl)piperidine-3-carbonyl)-N-(4-(trifluoromethyl)benzyl)pyrrolidine-2-carboxamide]",0.7944 µM
7,"CN(C)S(=O)(=O)c1cccc(C(=O)N2CCC[C@@H]2C(=O)NCc2ccc(Cl)c(F)c2)c1 [Example 303, N-(4-chloro-3-fluorobenzyl)-1-(3-(dimethylsulfamoyl)benzoyl)-D-prolinamide]",0.7956 µM
8,"N#CC1CN(S(=O)(=O)c2cccc(C(=O)N3CCC[C@@H]3C(=O)N[C@@H](CO)c3ccc(Cl)cc3)c2)C1 [Example 305, N-((1R)-1-(4-chlorophenyl)-2-hydroxyethyl)-1-(3-((3-cyano-1-azetidinyl)sulfonyl)benzoyl)-D-prolinamide]",0.8013 µM
9,"O=C(O)CS(=O)(=O)c1cccc(C(=O)N2[C@@H](C(=O)N[C@@H](c3cc(F)c(C(F)(F)F)cc3F)C3CC3)C[C@H]3C[C@H]32)c1 [Example 306, ((3-(((1R,3R,5R)-3-(((R)-cyclopropyl(2,5-difluoro-4-(trifluoromethyl)phenyl)methyl)carbamoyl)-2-azabicyclo[3.1.0]hexan-2-yl)carbonyl)phenyl)sulfonyl)acetic acid]",0.8057 µM
10,"CS(=O)(=O)c1cccc(C(=O)N2[C@@H](C(=O)N[C@@H](c3ccc(C(F)(F)F)c(F)c3)C3CC3)C[C@H]3C[C@H]32)c1 [Example 307, (1R,3R,5R)-N-((R)-cyclopropyl(3-fluoro-4-(trifluoromethyl)phenyl)methyl)-2-(3-(methylsulfonyl)benzoyl)-2-azabicyclo[3.1.0]hexane-3-carboxamide]",0.8008 µM
11,"N#CC1CN(S(=O)(=O)N2CCC[C@H](C(=O)N3CCC[C@@H]3C(=O)N[C@@H](c3ccc(Cl)cc3)C(F)(F)F)C2)C1 [Example 308, N-((1S)-1-(4-chlorophenyl)-2,2,2-trifluoroethyl)-1-(((3S)-1-((3-cyano-1-azetidinyl)sulfonyl)-3-piperidinyl)carbonyl)-D-prolinamide]",0.8085 µM
12,"COc1cc(C(F)(F)F)ccc1[C@H](NC(=O)[C@H]1C[C@H]2C[C@H]2N1C(=O)c1cccc(S(C)(=O)=O)c1)C1CC1 [Example 309, (1R,3R,5R)-N-((R)-cyclopropyl(2-methoxy-4-(trifluoromethyl)phenyl)methyl)-2-(3-(methylsulfonyl)benzoyl)-2-]",0.822 µM
13,"O=C(N[C@@H](c1ccc(C(F)(F)F)c(F)c1)C1CC1)[C@H]1C[C@H]2C[C@H]2N1C(=O)c1cccc(S(=O)(=O)C2CC2)c1 [Example 310, (1R,3R,5R)—N—((R)-cyclopropyl(3-fluoro-4-(trifluoromethyl)phenyl)methyl)-2-(3-(cyclopropylsulfonyl)benzoyl)-2-azabicyclo[3.1.0]hexane-3-carboxamide]",0.8061 µM
14,"O=C(NCc1ccc(C(F)(F)F)cc1)[C@H]1CCCN1C(=O)[C@H]1CCCN(S(=O)(=O)N2CC(OCC(F)F)C2)C1 [Example 311, 1-(((3S)-1-((3-(2,2-difluoroethoxy)-1-azetidinyl)sulfonyl)-3-piperidinyl)carbonyl)-N-(4-(trifluoromethyl)benzyl)-D-prolinamide]",0.8393 µM
15,"O=C(NCc1ccc(C(F)(F)F)cc1)[C@H]1CC2(CC2)CN1C(=O)c1cccc(S(=O)(=O)N2CC3(CC3)C2)c1 [Example 312, (6R)-5-((3-(5-azaspiro[2.3]hex-5-ylsulfonyl)phenyl)carbonyl)-N-(4-(trifluoromethyl)benzyl)-5-azaspiro[2.4]heptane-6-carboxamide]",0.841 µM
16,"N#CC1CN(S(=O)(=O)N2CCC[C@H](C(=O)N3CCC[C@@H]3C(=O)NCc3cc(F)cc(Cl)c3)C2)C1 [Example 313, N-(3-chloro-5-fluorobenzyl)-1-(((3S)-1-((3-cyano-1-azetidinyl)sulfonyl)-3-piperidinyl)carbonyl)-D-prolinamide]",0.8424 µM
17,"CC(C)N(C)S(=O)(=O)c1cccc(C(=O)N2CCC[C@@H]2C(=O)NCc2ccc(C(F)(F)F)cc2)c1 [Example 315, 1-(3-(methyl(2-propanyl)sulfamoyl)benzoyl)-N-(4-(trifluoromethyl)benzyl)-D-prolinamide]",0.8574 µM
18,"CS(=O)(=O)c1cccc(C(=O)N2[C@@H](C(=O)N[C@@H](c3cc(F)c(Cl)cc3F)C3(O)CC3)C[C@H]3C[C@H]32)c1 [Example 316, (1R,3R,5R)-N-((S)-(4-chloro-2,5-difluorophenyl)(1-hydroxycyclopropyl)methyl)-2-(3-(methylsulfonyl)benzoyl)-2-azabicyclo[3.1.0]hexane-3-carboxamide]",0.8325 µM
19,"C[C@H](C(=O)N[C@H](C)c1ccc(Cl)cc1F)N(C)C(=O)[C@H]1CCCN(S(=O)(=O)N2CC(C#N)C2)C1 [Example 317, (3S)-N-((2R)-1-(((1R)-1-(4-chloro-2-fluorophenyl)ethyl)amino)-l-oxo-2-propanyl)-1-((3-cyano-1-azetidinyl)sulfonyl)-N-methyl-3-piperidinecarboxamide]",0.8619 µM
20,"CS(=O)(=O)c1cc(C(=O)N2CCCC[C@@H]2C(=O)N[C@@H](c2cc(F)c(Cl)cc2F)C2CC2)ccn1 [Example 318, (2R)-N-((R)-(4-chloro-2,5-difluorophenyl)(cyclopropyl)methyl)-1-((2-(methylsulfonyl)-4-pyridinyl)carbonyl)-2-piperidinecarboxamide]",0.8652 µM
21,"N#C[C@@H]1CCN(S(=O)(=O)N2CCC[C@H](C(=O)N3CCC[C@@H]3C(=O)NCc3ccc(C(F)(F)F)cc3)C2)C1 [Example 319, 1-(((3S)-1-(((3R)-3-cyano-1-pyrrolidinyl)sulfonyl)-3-piperidinyl)carbonyl)-N-(4-(trifluoromethyl)benzyl)-D-prolinamide]",0.8692 µM
22,"CS(=O)(=O)c1cccc(C(=O)N2CC(F)(F)C[C@@H]2C(=O)N[C@@H](c2ccc(C(F)(F)F)cc2F)C2CC2)c1 [Example 320, N-((R)-cyclopropyl(2-fluoro-4-(trifluoromethyl)phenyl)methyl)-4,4-difluoro-1-(3-(methylsulfonyl)benzoyl)-D-prolinamide]",0.8613 µM
23,"C[C@@H](NC(=O)[C@H]1CCCN1C(=O)[C@H]1CCCN(S(=O)(=O)N2CC(S(C)(=O)=O)C2)C1)c1ccc(F)cc1F [Example 321, N-((1R)-1-(2,4-difluorophenyl)ethyl)-1-(((3S)-1-((3-(methylsulfonyl)-1-azetidinyl)sulfonyl)-3-piperidinyl)carbonyl)-D-prolinamide]",0.8725 µM
24,"O=C(N[C@@H](c1ccc(C(F)(F)F)cc1F)C1CC1)[C@H]1CCCCN1C(=O)c1cccc(C(O)(O)C(F)(F)F)c1 [Example 322, (2R)-N-((R)-cyclopropyl(2-fluoro-4-(trifluoromethyl)phenyl)methyl)-1-(3-(2,2,2-trifluoro-1,1-dihydroxyethyl)benzoyl)-2-piperidinecarboxamide]",0.8731 µM
25,"Cc1cc(C(=O)N2[C@@H](C(=O)N[C@@H](c3ccc(C(F)(F)F)cc3F)C3COC3)C[C@H]3C[C@H]32)cc(S(C)(=O)=O)c1 [Example 323, (1R,3R,5R)-N-((R)-(2-fluoro-4-(trifluoromethyl)phenyl)(3-oxetanyl)methyl)-2-(3-methyl-5-(methylsulfonyl)benzoyl)-2-azabicyclo[3.1.0]hexane-3-carboxamide]",0.8707 µM
26,"N#CC1CN(S(=O)(=O)c2cccc(C(=O)N3CCc4ccccc4C3C(=O)NCc3ccc(C(F)(F)F)cc3)c2)C1 (stereo not drawn) [Example 324, 2-(3-((3-cyanoazetidin-1-yl)sulfonyl)benzoyl)-N-(4-(trifluoromethyl)benzyl)-1,2,3,4-tetrahydroisoquinoline-1-carboxamide]",0.8782 µM
27,N#CC1CN(S(=O)(=O)N2CCC[C@H](C(=O)N3[C@@H](C(=O)NCc4ccc(C(F)(F)F)nc4)C[C@H]4C[C@H]43)C2)C1 [Example 326],0.8885 µM
